“And” between values parts separate entries of the source, which are not always exact repeats. Equal values may be shown once. ± gives the expanded uncertainty stated by the source.
How the values were obtained:
[1] = 101.33 kPa, Liquid; for speed of sound: sound analyzer
[2] = xn = mol fraction of the nth substance listed; conditions: 101 kPa, Liquid

With `COCCOCCO` [2-(2-methoxyethoxy)ethanol] the mass density ([1]; 293.15 K) was 1019.81 ± 1.1 kg/m3, the speed of sound ([1]; 293.15 K) was 1432.4 ± 2 m/s and the mass density ([1]; 298.15 K) was 1015.41 ± 1.1 kg/m3. For the same compound, the speed of sound ([1]; 298.15 K) was 1415.2 ± 2 m/s, the mass density ([1]; 303.15 K) was 1010.91 ± 1.1 kg/m3 and the speed of sound ([1]; 303.15 K) was 1397.9 ± 2 m/s.

Compound `CCOCCOCCO` [3,6-dioxa-1-octanol] has a mass density ([1]; 293.15 K) of 987.876 ± 1.1 kg/m3, a speed of sound ([1]; 293.15 K) of 1392.3 ± 2 m/s and a mass density ([1]; 298.15 K) of 983.336 ± 1.1 kg/m3. It also gave a speed of sound ([1]; 298.15 K) of 1374.3 ± 2 m/s, a mass density ([1]; 303.15 K) of 978.788 ± 1.1 kg/m3 and a speed of sound ([1]; 303.15 K) of 1356.6 ± 2 m/s.

Work on `CCCCOCCOCCO` [3,6-dioxa-1-decanol] yielded a mass density ([1]; 293.15 K) of 952.196 ± 1.1 kg/m3, a speed of sound ([1]; 293.15 K) of 1374.3 ± 2 m/s and a mass density ([1]; 298.15 K) of 948.103 ± 1.1 kg/m3. It also gave a speed of sound ([1]; 298.15 K) of 1357 ± 2 m/s, a mass density ([1]; 303.15 K) of 943.743 ± 1.1 kg/m3 and a speed of sound ([1]; 303.15 K) of 1340 ± 2 m/s.

In the case of `CCOCCOCCO` [3,6-dioxa-1-octanol] + CCCCO, the mass density ([2]; 293.15 K, x1 = 0.0519) is reported as 823.011 ± 0.85 kg/m3, the mass density ([2]; 293.15 K, x1 = 0.1029) is reported as 835.52 ± 0.82 kg/m3 and the mass density ([2]; 293.15 K, x1 = 0.1999) is reported as 857.73 ± 0.79 kg/m3. The mass density ([2]; 293.15 K, x1 = 0.2989) was 878.535 ± 0.77 kg/m3, the mass density ([2]; 293.15 K, x1 = 0.3513) was 888.856 ± 0.76 kg/m3 and the mass density ([2]; 293.15 K, x1 = 0.4015) was 898.337 ± 0.76 kg/m3. It also gave a mass density ([2]; 293.15 K, x1 = 0.4514) of 907.402 ± 0.77 kg/m3, a mass density ([2]; 293.15 K, x1 = 0.5492) of 924.169 ± 0.78 kg/m3 and a mass density ([2]; 293.15 K, x1 = 0.5966) of 931.866 ± 0.8 kg/m3. It also gave a mass density ([2]; 293.15 K, x1 = 0.65) of 940.215 ± 0.82 kg/m3, a mass density ([2]; 293.15 K, x1 = 0.7002) of 947.765 ± 0.84 kg/m3 and a mass density ([2]; 293.15 K, x1 = 0.7009) of 947.885 ± 0.84 kg/m3. For the same compound, the mass density ([2]; 293.15 K, x1 = 0.7015) was 947.962 ± 0.84 kg/m3, the mass density ([2]; 293.15 K, x1 = 0.7952) was 961.375 ± 0.9 kg/m3 and the mass density ([2]; 293.15 K, x1 = 0.8477) was 968.507 ± 0.94 kg/m3. For the same compound, the mass density ([2]; 293.15 K, x1 = 0.8489) was 968.677 ± 0.94 kg/m3, the mass density ([2]; 293.15 K, x1 = 0.8966) was 974.953 ± 0.98 kg/m3 and the mass density ([2]; 293.15 K, x1 = 0.95) was 981.736 ± 1 kg/m3. The mass density ([2]; 298.15 K, x1 = 0.0512) was 818.966 ± 0.86 kg/m3, the mass density ([2]; 298.15 K, x1 = 0.1017) was 831.315 ± 0.83 kg/m3 and the mass density ([2]; 298.15 K, x1 = 0.1026) was 831.513 ± 0.83 kg/m3. It also gave a mass density ([2]; 298.15 K, x1 = 0.151) of 842.801 ± 0.81 kg/m3, a mass density ([2]; 298.15 K, x1 = 0.1733) of 847.84 ± 0.81 kg/m3 and a mass density ([2]; 298.15 K, x1 = 0.2524) of 864.926 ± 0.79 kg/m3. For the same compound, the mass density ([2]; 298.15 K, x1 = 0.35) was 884.465 ± 0.77 kg/m3, the mass density ([2]; 298.15 K, x1 = 0.4025) was 894.359 ± 0.77 kg/m3 and the mass density ([2]; 298.15 K, x1 = 0.449) was 902.763 ± 0.78 kg/m3. The mass density ([2]; 298.15 K, x1 = 0.452) was 903.287 ± 0.78 kg/m3, the mass density ([2]; 298.15 K, x1 = 0.4995) was 911.551 ± 0.78 kg/m3 and the mass density ([2]; 298.15 K, x1 = 0.5992) was 927.958 ± 0.81 kg/m3. It also gave a mass density ([2]; 298.15 K, x1 = 0.6015) of 928.324 ± 0.81 kg/m3, a mass density ([2]; 298.15 K, x1 = 0.6487) of 935.658 ± 0.83 kg/m3 and a mass density ([2]; 298.15 K, x1 = 0.7001) of 943.37 ± 0.85 kg/m3. For the same compound, the mass density ([2]; 298.15 K, x1 = 0.7491) was 950.466 ± 0.88 kg/m3 and 950.476 ± 0.88 kg/m3, the mass density ([2]; 298.15 K, x1 = 0.8) was 957.603 ± 0.91 kg/m3 and the mass density ([2]; 298.15 K, x1 = 0.8086) was 958.782 ± 0.92 kg/m3. It also gave a mass density ([2]; 298.15 K, x1 = 0.8491) of 964.231 ± 0.95 kg/m3, a mass density ([2]; 298.15 K, x1 = 0.8982) of 970.663 ± 0.99 kg/m3 and a mass density ([2]; 303.15 K, x1 = 0.0507) of 814.94 ± 0.87 kg/m3. The mass density ([2]; 303.15 K, x1 = 0.1007) was 827.098 ± 0.85 kg/m3, the mass density ([2]; 303.15 K, x1 = 0.1488) was 838.296 ± 0.83 kg/m3 and the mass density ([2]; 303.15 K, x1 = 0.1539) was 839.456 ± 0.83 kg/m3. It also gave a mass density ([2]; 303.15 K, x1 = 0.1998) of 849.635 ± 0.81 kg/m3, a mass density ([2]; 303.15 K, x1 = 0.2025) of 850.231 ± 0.81 kg/m3 and a mass density ([2]; 303.15 K, x1 = 0.2526) of 860.864 ± 0.8 kg/m3. For the same compound, the mass density ([2]; 303.15 K, x1 = 0.3035) was 871.188 ± 0.79 kg/m3, the mass density ([2]; 303.15 K, x1 = 0.3042) was 871.343 ± 0.79 kg/m3 and the mass density ([2]; 303.15 K, x1 = 0.3492) was 880.114 ± 0.79 kg/m3. It also gave a mass density ([2]; 303.15 K, x1 = 0.4027) of 890.141 ± 0.78 kg/m3, a mass density ([2]; 303.15 K, x1 = 0.4543) of 899.435 ± 0.79 kg/m3 and a mass density ([2]; 303.15 K, x1 = 0.5504) of 915.759 ± 0.81 kg/m3. It also gave a mass density ([2]; 303.15 K, x1 = 0.5525) of 916.103 ± 0.81 kg/m3, a mass density ([2]; 303.15 K, x1 = 0.5539) of 916.33 ± 0.81 kg/m3 and a mass density ([2]; 303.15 K, x1 = 0.6) of 923.723 ± 0.82 kg/m3. It also gave a mass density ([2]; 303.15 K, x1 = 0.6019) of 924.03 ± 0.82 kg/m3, a mass density ([2]; 303.15 K, x1 = 0.7506) of 946.255 ± 0.89 kg/m3 and a mass density ([2]; 303.15 K, x1 = 0.8006) of 953.229 ± 0.92 kg/m3. The mass density ([2]; 303.15 K, x1 = 0.8496) was 959.837 ± 0.96 kg/m3 and the mass density ([2]; 303.15 K, x1 = 0.949) was 972.571 ± 1 kg/m3.

For `CCCCO` [butan-1-ol], the mass density ([1]; 293.15 K) was 809.644 ± 0.47 kg/m3, the speed of sound ([1]; 293.15 K) was 1256.7 ± 0.54 m/s and the mass density ([1]; 298.15 K) was 805.842 ± 0.47 kg/m3. It also gave a speed of sound ([1]; 298.15 K) of 1239.2 ± 0.54 m/s, a mass density ([1]; 303.15 K) of 801.995 ± 0.47 kg/m3 and a speed of sound ([1]; 303.15 K) of 1222.7 ± 0.54 m/s.
